Legend:
Format in all cases: in vivo
[1] = system: Tetranychus urticae (OP-resistant strain), 2-spotted spider mite (TSM); assay: 2-spotted spider mite (TSM) plant dip test; parameters: key: 0 = no effect; 1 = 10-25% kill; 2 = 26-35% kill; 3 = 36-45% kill; 4 = 46-55% kill; 5 = 56-65% kill; 6 = 66-75% kill; 7 = 76-85% kill; 8 = 86-99% kill; 9 = 100% kill; conditions: mortality after 2 days
Description: (§1) Test solutions are prepared by dissolving the test compound in a 35% acetone in water mixture to give a concentration of 10,000 ppm. Subsequent dilutions are made with water as needed.
Tetranychus urticae (OP-resistant strain), 2-spotted Spider Mite (TSM)
Sieva lima bean plants with primary leaves expanded to 7-8 cm are selected and cut back to one plant per pot. A small piece is cut from an infested leaf taken from the main colony and placed on each leaf of the test plants. This is done about 2 hours before treatment to allow the mites to move over to the test plant to lay eggs. The size of the cut, infested leaf is varied to obtain about 100 mites per leaf. At the time of test treatment, the piece of leaf used to transfer the mites is removed and discarded. The newly-infested plants are dipped in the test solution for 3 seconds with agitation and set in the hood to dry. After 2 days, one leaf is removed and mortality counts are made.

[2] = system: Spodoptera eridania, 2nd instar larvae, southern armyworm (SAW); assay: Southern armyworm (SAW) leaf dip test; parameters: key: 0 = no effect; 1 = 10-25% kill; 2 = 26-35% kill; 3 = 36-45% kill; 4 = 46-55% kill; 5 = 56-65% kill; 6 = 66-75% kill; 7 = 76-85% kill; 8 = 86-99% kill; 9 = 100% kill
Description: as §1
Spodoptera eridania, 2nd Instar Larvae, Southern Armyworm (SAW)
A Sieva lima bean leaf expanded to 7-8 cm in length is dipped in the test solution with agitation for 3 seconds and allowed to dry in a hood. The leaf is then placed in a 100×10 mm petri dish containing a damp filter paper on the bottom and ten 2nd instar caterpillars. At 5 days, observations are made of mortality, reduced feeding, or any interference with normal molting.

[3] = system: M. incognita (Root Knot Nematode) larvae; assay: Evaluation of test compounds against M. incognita larvae in microtiter plate wells (movement score); conditions: larvae scored for movement after 20-24 hours; also: key: A score of '9' indicates inactive worms with a straight, sticklike morphology; A score of '8' indicates inactive worms with a limp, curled or curved morphology; A score of '7' indicates dead/paralyzed worms after 72 hours
Description: Evaluation of Test Compounds Against M. incognita (Root Knot Nematode)
Newly emerged M. incognita larvae are suspended in S Medium (buffered salt solution) to a concentration of 50-65 worms per 50 μl. 50 μl of the worm suspension are pipetted into microtiter plate wells containing the test compounds. The plates are then covered with plactic plate sealers to reduce loss of volume by evaporation. After 20-24 hours of incubation, the larvae are scored for movement. Wells containing obviously dead/paralyzed larvae are scored as positive. […] A score of “7” indicates dead/paralyzed worms after […].

[4] = system: C. elegans (Bristol strain); assay: Evaluation of test compounds against C. elegans (motility, 96-well plate); parameters: key: 9=complete kill in 4 hours; 8=complete kill in 24 hours; 7=markedly reduced motility in approximately 95% of worms in 24 hours; 0=normal motility, same as controls; conditions: motility at 4 and 24 hours
Description: Evaluation of Test Compounds Against C. elegans Cultures of C. elegans (Bristol strain from J. Lewis) are maintained on E. coli lawns on NG Agar Plates at 20° C. New cultures are established weekly. Nematodes for testing are washed from cultures using Na buffer. Compounds are dissolved in 80% acetone. The test material is micropipetted (25 μl) into a single well of a 96-well sterile tissue culture plate and the solvent allowed to evaporate. A freshly prepared volume (50 μl) of C. elegans in Na buffer is micropipetted into each treated well and several control wells per plate. Plates are incubated at 20° C. Observations for efficacy are made under a dissecting microscope at 4 and 24 hours post-immersion. Immediately prior to reading the plate, it is gently tapped to stimulate the movement of the worms. Activity is judged subjectively, but semi-quantitatively, based on the drug effects on motility of the adults and larvae.

[5] = system: Aphis gossypii, cotton aphid (CA); assay: Cotton aphid (CA) cotyledon dip test; parameters: key: 0 = no effect; 1 = 10-25% kill; 2 = 26-35% kill; 3 = 36-45% kill; 4 = 46-55% kill; 5 = 56-65% kill; 6 = 66-75% kill; 7 = 76-85% kill; 8 = 86-99% kill; 9 = 100% kill; conditions: mortality after 5 days
Description: Test solutions are prepared by dissolving the test compound in a 35% acetone in water mixture to give a concentration of 10,000 ppm. Subsequent dilutions are made with water as needed. Aphis gossypii, Cotton Aphid (CA) Cotton plants at the cotyledon stage are selected and cut back to one plant per pot. A heavily infested leaf is taken from the main colony and placed on top of each cotyledon. The aphids are allowed to transfer to the host plant overnight. At the time of test treatment, the leaf used to transfer the aphids is removed and discarded. The cotyledons are dipped in the test solution and allowed to dry. After 5 days, mortality counts are made. [table]

[6] = system: Diabrotica virgifera virgifera Leconte, 2nd instar western corn rootworm (WCR); assay: Western corn rootworm (WCR) soil test; parameters: key: 0 = no effect; 1 = 10-25% kill; 2 = 26-35% kill; 3 = 36-45% kill; 4 = 46-55% kill; 5 = 56-65% kill; 6 = 66-75% kill; 7 = 76-85% kill; 8 = 86-99% kill; 9 = 100% kill
Description: Test solutions are prepared by dissolving the test compound in a 35% acetone in water mixture to give a concentration of 10,000 ppm. Subsequent dilutions are made with water as needed. Diabrotica virgifera virgifera Leconte, 2nd Instar Western Corn Rootworm (WCR) One cc of fine talc is placed in a 30 mL wide-mouth screw-top glass jar. One mL of the appropriate acetone test solution is pipetted onto the talc so as to provide 1.25 mg of active ingredient per jar. The jars are set under a gentle air flow until the acetone is evaporated. The dried talc is loosened, 1 cc of millet seed is added to serve as food for the insects and 25 mL of moist soil is added to each jar. The jar is capped and the contents thoroughly mixed mechanically. Following this, ten 2nd instar rootworms are added to each jar and the jars are loosely capped to allow air exchange for the larvae. The treatments are held for 5 days when mortality counts are made. Missing larvae are presumed dead, since they decompose rapidly and cannot be found. The concentrations of active ingredient used in this test correspond approximately to 50 kg/ha. [table]

[7] = system: Spodoptera eridania, eggs-southern armyworm (SAW-Eggs); assay: Southern armyworm eggs (SAW-Eggs) treated diet test; parameters: key: 0 = no effect; 1 = 10-25% kill; 2 = 26-35% kill; 3 = 36-45% kill; 4 = 46-55% kill; 5 = 56-65% kill; 6 = 66-75% kill; 7 = 76-85% kill; 8 = 86-99% kill; 9 = 100% kill; conditions: mortality after 7 days
Description: (§2) Test solutions are prepared by dissolving the test compound in a 35% acetone in water mixture to give a concentration of 10,000 ppm. Subsequent dilutions are made with water as needed. Spodoptera eridania, Eggs-southern Armyworm and Diabrotica undecimpunctata howardi, Eggs-southern Corn Rootworm (SAW-Eggs) and (SCR-Eggs) Wells containing artificial diet are treated with the test solutions and dried. The appropriate insect eggs are then placed in the wells. The wells are covered with vented, adhesive, clear plastic covers. After 7 days, mortality counts are made. [table]

[8] = system: Diabrotica undecimpunctata howardi, eggs-southern corn rootworm (SCR-Eggs); assay: Southern corn rootworm eggs (SCR-Eggs) treated diet test; parameters: key: 0 = no effect; 1 = 10-25% kill; 2 = 26-35% kill; 3 = 36-45% kill; 4 = 46-55% kill; 5 = 56-65% kill; 6 = 66-75% kill; 7 = 76-85% kill; 8 = 86-99% kill; 9 = 100% kill; conditions: mortality after 7 days
Description: as §2

Structure (SMILES) | TSM (300 ppm) rating [1] | SAW (300 ppm) rating [2] | M. incognita (150 ppm) score [3] | Rating Against C. elegans (150 ppm) [4] | CA (300 ppm) rating [5] | WCR (50 ppm) rating [6] | SAW Eggs (300 ppm) rating [7] | SCR Eggs (1000 ppm) rating [8]
O=[N+]([O-])CC(SCc1ccccc1)c1ccccc1 (stereo not shown) [Example 10] | 0 | 0 | 0 | 0 | 0 | 0 | 0 | 
CCCCC(CC)COC(=O)CSC(C[N+](=O)[O-])c1ccccc1 (stereo not shown) [Example 9] | 0 | 0 | 0 | 0 | 0 | 4 (4 = 46-55% kill) | 0 | 
CC(C)CCCCCOC(=O)CSC(C[N+](=O)[O-])c1ccc(F)cc1 (stereo not shown) [Example 11] | 0 | 0 | 0 | 0 | 0 | 0 | 0 | 
CCCSC(C[N+](=O)[O-])c1ccc(F)cc1 (stereo not shown) [Example 14] | 0 | 0 | 0 | 0 | 0 | 0 | 0 | 
CCCCOC(=O)CSC(C[N+](=O)[O-])c1ccc(F)cc1 (stereo not shown) [Example 17] | 5 (5 = 56-65% kill) | 0 | 9 | 8 | 0 | 0 | 0 | 
CCCCOC(=O)CSC(C[N+](=O)[O-])c1ccccc1 (stereo not shown) [Example 7] | 0 | 0 | 9 | 8 | 0 | 0 | 0 | 
CCCCOC(=O)CSC(C[N+](=O)[O-])c1ccccc1Cl (stereo not shown) [Example 90] | 3 (3 = 36-45% kill) | 0 | 8 | 7 | 0 | 0 |  | 0
CCOC(=O)CSC(C[N+](=O)[O-])c1ccccc1Cl (stereo not shown) [Example 89] | 0 | 0 | 8 | 0 | 0 | 0 |  | 0
CCOC(=O)CSC(C[N+](=O)[O-])c1ccccc1F (stereo not shown) [Example 40] | 0 | 3 (3 = 36-45% kill) | 9 | 8 | 0 | 9 (9 = 100% kill) |  | 0
O=[N+]([O-])CC(SCc1ccccc1)c1ccccc1F (stereo not shown) [Example 44] | 0 | 5 (5 = 56-65% kill) | 0 | 7 | 0 | 4 (4 = 46-55% kill) |  | 0
CCCSC(C[N+](=O)[O-])c1ccccc1F (stereo not shown) [Example 45] | 0 | 0 | 0 | 0 | 0 | 8 (8 = 86-99% kill) |  | 7 (7 = 76-85% kill)
C=CCSC(C[N+](=O)[O-])c1ccc(C(C)C)cc1 (stereo not shown) [Example 38] | 0 | 0 | 0 | 0 | 0 | 0 |  | 9 (9 = 100% kill)
CCCCC(CC)COC(=O)CSC(C[N+](=O)[O-])c1ccccc1F (stereo not shown) [Example 43] | 0 | 4 (4 = 46-55% kill) | 0 | 0 | 0 | 7 (7 = 76-85% kill) |  | 9 (9 = 100% kill)
CCCCC(CC)COC(=O)CSC(C[N+](=O)[O-])c1ccccc1Cl (racemic) [Example 92] | 0 | 0 | 0 | 0 | 0 | 5 (5 = 56-65% kill) |  | 0
C=CCSC(C[N+](=O)[O-])c1ccccc1Cl (racemic) [Example 95] | 0 | 0 | 0 | 0 | 0 | 4 (4 = 46-55% kill) |  | 0
CC(C)CCCCCOC(=O)CSC(C[N+](=O)[O-])c1ccccc1Cl (stereo not shown) [Example 91] | 0 | 0 | 0 | 0 | 0 | 0 |  | 0

Reference: patent publication US6358883B1, “Pesticidal and parasiticidal use of 1-aryl-1-(substituted thio, sulfinyl and sulfonyl)-2-nitroethane compounds” (American Cyanamid Company, priority 1998, dated 2002)
